According to patent US6461997B1, “Triazole sulfones having herbicidal activity” (Monsanto Technology LLC, priority 1999, dated 2002):

Tests used:
[1] = system: corn (ZEAMX); test: Selectivity test, PPI, warm season crop; type: in vivo, Zea mays; details: PPI application
In short: (§1)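 Pre-plant incorporated: compound in organic solvent sprayed onto cover soil, mixed and laid over seeds; untreated soil for controls. Greenhouse after treatment: warm season 30/21° C., cool season 18/13° C. day/night. Percent inhibition versus untreated plants scored about 14 days after planting.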

[2] = system: SETFA (giant foxtail); test: Pre-plant incorporated (PPI) herbicidal activity, warm season; type: in vivo, Setaria faberi; details: for Percent inhibition SETFA: PPI application
In short: (§2)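 PPI simulation: compound in organic solvent sprayed onto weighed cover soil, mixed thoroughly, spread over seeds. Controls: untreated cover soil. 0.64 cm overhead irrigation, then mist/subirrigation. Day/night 30/21° C (warm) or 18/13° C (cool). Read-out ~14 d, % inhibition vs untreated.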

[3] = system: SETVI (green foxtail); test: Pre-plant incorporated (PPI) herbicidal activity, cool season; type: in vivo, Setaria viridis; details: for Percent inhibition SETVI: weed, PPI application
In short: as §2

[4] = system: BRAPP (broadleaf signalgrass); test: Pre-plant incorporated (PPI) herbicidal activity, warm season; type: in vivo, Brachiaria platyphylla; details: for Percent inhibition BRAPP: PPI application
In short: as §2

[5] = system: wheat (TRZAW); test: Selectivity test, PPI, cool season crop; type: in vivo, Triticum aestivum; details: PPI application
In short: as §1

[6] = system: SINAR (wild mustard); test: Pre-plant incorporated (PPI) herbicidal activity, cool season; type: in vivo, Sinapis arvensis; details: for Percent inhibition SINAR: weed, PPI application
In short: as §2

[7] = system: LAMPU (purple deadnettle); test: as above; type: in vivo, Lamium purpureum; details: for Percent inhibition LAMPU: weed, PPI application
In short: as §2

[8] = system: AGRRE (quackgrass (seedling)); test: as above; type: in vivo, Elymus repens; details: for Percent inhibition AGRRE: weed, PPI application
In short: as §2

[9] = system: SORVU (shattercane); test: Pre-plant incorporated (PPI) herbicidal activity, warm season; type: in vivo, Sorghum vulgare; details: for Percent inhibition SORVU: PPI application
In short: as §2

[10] = system: GALAP (catchweed bedstraw); test: Pre-plant incorporated (PPI) herbicidal activity, cool season; type: in vivo, Galium aparine; details: for Percent inhibition GALAP: weed, PPI application
In short: as §2

[11] = system: STEME (common chickweed); test: as above; type: in vivo, Stellaria media; details: pre-plant incorporated; lowest tested rate with 80% or greater inhibition; about 14 days
In short: as §2

[12] = system: barley (HORVX); test: Selectivity test, PPI, cool season crop; type: in vivo, Hordeunm vulgare; details: PPI application
In short: as §1

[13] = system: SASKR (russian thistle); test: Pre-plant incorporated (PPI) herbicidal activity, cool season; type: in vivo, Salsola kali; details: for Percent inhibition SASKR: weed, PPI application
In short: as §2

[14] = pre-plant incorporated, lowest tested rate with 80% or greater inhibition, about 14 days

C=C(CC(F)(F)S(=O)(=O)c1ncn(C(=O)N(CC)CC)n1)C[Si](C)(C)C [Example 20]
Percent inhibition ZEAMX ([1]; 10 g/ha): 0%
Percent inhibition ZEAMX ([1]; 30 g/ha): 0%
Percent inhibition ZEAMX ([1]; 100 g/ha): 0%
Percent inhibition ZEAMX ([1]; 300 g/ha): 20%
Percent inhibition ZEAMX ([1]; 900 g/ha): 40%
Percent inhibition SETFA ([2]; 10 g/ha): 0%
Percent inhibition SETFA ([2]; 30 g/ha): 70%
Percent inhibition SETFA ([2]; 100 g/ha): 99%
Percent inhibition SETFA ([2]; 300 g/ha): 90%
Percent inhibition SETFA ([2]; 900 g/ha): 100%
PPI activity GR80, SETFA [2, 14]: 100 g/ha
PPI activity GR80, SETVI [3, 14]: 30 g/ha
Percent inhibition SETVI ([3]; 10 g/ha): 0%
Percent inhibition SETVI ([3]; 30 g/ha): 70%
Percent inhibition SETVI ([3]; 100 g/ha): 40%
Percent inhibition SETVI ([3]; 300 g/ha): 100%
Percent inhibition SETVI ([3]; 900 g/ha): 100%
Percent inhibition BRAPP ([4]; 10 g/ha): 0%
Percent inhibition BRAPP ([4]; 30 g/ha): 0%
Percent inhibition BRAPP ([4]; 100 g/ha): 0%
Percent inhibition BRAPP ([4]; 300 g/ha): 30%
Percent inhibition BRAPP ([4]; 900 g/ha): 60%
PPI activity GR80, BRAPP [4, 14]: 100 g/ha
Percent inhibition TRZAW ([5]; 10 g/ha): 0%
Percent inhibition TRZAW ([5]; 30 g/ha): 0%
Percent inhibition TRZAW ([5]; 100 g/ha): 0%
Percent inhibition TRZAW ([5]; 300 g/ha): 40%
Percent inhibition TRZAW ([5]; 900 g/ha): 60%
PPI activity GR80, SINAR [6, 14]: * (activity observed, at least at highest rate, but <80% inhibition)
Percent inhibition SINAR ([6]; 10 g/ha): 30%
Percent inhibition SINAR ([6]; 30 g/ha): 80%
Percent inhibition SINAR ([6]; 100 g/ha): 80%
Percent inhibition SINAR ([6]; 300 g/ha): 60%
Percent inhibition SINAR ([6]; 900 g/ha): 70%
PPI activity GR80, LAMPU [7, 14]: 100 g/ha
Percent inhibition LAMPU ([7]; 10 g/ha): 90%
Percent inhibition LAMPU ([7]; 30 g/ha): 60%
Percent inhibition LAMPU ([7]; 100 g/ha): 80%
Percent inhibition LAMPU ([7]; 300 g/ha): 100%
Percent inhibition LAMPU ([7]; 900 g/ha): 95%
PPI activity GR80, AGRRE [8, 14]: 300 g/ha
Percent inhibition AGRRE ([8]; 10 g/ha): 0%
Percent inhibition AGRRE ([8]; 30 g/ha): 10%
Percent inhibition AGRRE ([8]; 100 g/ha): 65%
Percent inhibition AGRRE ([8]; 300 g/ha): 40%
Percent inhibition AGRRE ([8]; 900 g/ha): 80%
Percent inhibition SORVU ([9]; 10 g/ha): 0%
Percent inhibition SORVU ([9]; 30 g/ha): 0%
Percent inhibition SORVU ([9]; 100 g/ha): 30%
Percent inhibition SORVU ([9]; 300 g/ha): 40%
Percent inhibition SORVU ([9]; 900 g/ha): 100%
PPI activity GR80, SORVU [9, 14]: * (activity observed, at least at highest rate, but <80% inhibition)
PPI activity GR80, GALAP [10, 14]: [empty]
Percent inhibition GALAP ([10]; 10 g/ha): 0%
Percent inhibition GALAP ([10]; 30 g/ha): 0%
Percent inhibition GALAP ([10]; 100 g/ha): 50%
Percent inhibition GALAP ([10]; 300 g/ha): 90%
Percent inhibition GALAP ([10]; 900 g/ha): 100%
PPI activity GR80, STEME [11]: * (activity observed, at least at highest rate, but <80% inhibition)
Percent inhibition HORVX ([12]; 10 g/ha): 0%
Percent inhibition HORVX ([12]; 30 g/ha): 0%
Percent inhibition HORVX ([12]; 100 g/ha): 0%
Percent inhibition HORVX ([12]; 300 g/ha): 10%
Percent inhibition HORVX ([12]; 900 g/ha): 30%
PPI activity GR80, SASKR [13, 14]: 300 g/ha
Percent inhibition SASKR ([13]; 10 g/ha): 0%
Percent inhibition SASKR ([13]; 30 g/ha): 0%
Percent inhibition SASKR ([13]; 100 g/ha): 40%
Percent inhibition SASKR ([13]; 300 g/ha): 0%
Percent inhibition SASKR ([13]; 900 g/ha): 100%
